Reference: patent US20130012466A1 (priority 2006, published 2013)
Where two headings read alike, the source gives them in different places.

How the values were obtained:
[1] = tested on: A549 cells; experiment: Drug combination study with paclitaxel (Chou-Talalay combination index); details: for synergy (paclitaxel): combination index class, combination with paclitaxel, Chou-Talalay method; for plus paclitaxel, mean CI / plus paclitaxel, median CI: combination index, paclitaxel held at IC10, A549 cells;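 for all read-outs here: combination indexes averaged only over points where fraction affected exceeded 0.2, with each synergy experiment repeated at least three times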
Description: (§1) Ten thousand A549 cells per well were plated in triplicate in 96 well black tissue culture treated plates. Cells were incubated for one hour at 37° C. to allow cells to attach.
(§2) All synergy experiment results were replicated at least three times and the overall effects analyzed by averaging all combination indexes generated if the fraction affected was greater than 0.2.

[2] = tested on: A549 cells; experiment: Drug combination study with colchicine (Chou-Talalay combination index); details: combination index, colchicine held at IC10, A549 cells
Description: as §1, §2

[3] = tested on: mouse mammary normal epithelial control cell line; experiment: Cytotoxicity assay, normal control cell line
[4] = tested on: A549; experiment: Cytotoxicity assay (cell titer-glo and calcein AM), A549; details: A549, % error in parentheses
[5] = tested on: ADR-RES; experiment: Cytotoxicity assay (cell titer-glo and calcein AM), ADR-RES; details: NCI/ADR RES, % error in parentheses
[6] = tested on: SK-OV-3; experiment: Cytotoxicity assay (cell titer-glo and calcein AM), SK-OV-3; details: SK-OV-3, % error in parentheses
[7] = tested on: Hep3B; experiment: Cytotoxicity assay (cell titer-glo and calcein AM), Hep3B; details: Hep 3B, % error in parentheses
[8] = tested on: Du145; experiment: Cytotoxicity assay (cell titer-glo and calcein AM), Du145; details: Du145, % error in parentheses
[9] = tested on: SF-268; experiment: Cytotoxicity assay (cell titer-glo and calcein AM), SF-268; details: SF-268, % error in parentheses
[10] = tested on: MCF7; experiment: Cytotoxicity assay (cell titer-glo and calcein AM), MCF7
[11] = tested on: NCI-H460; experiment: Cytotoxicity assay (cell titer-glo and calcein AM), NCI-H460; details: NCI-H460, % error in parentheses
[12] = read-out: Cytotoxicity IC50, NmuMG, CTG, CTG (cell titer-glo) readout, % error in parentheses
[13] = read-out: Cytotoxicity IC50, NmuMG, calcein, calcein AM readout, % error in parentheses
[14] = read-out: Cytotoxicity IC50, A549, CTG, CTG (cell titer-glo) readout
[15] = read-out: Cytotoxicity IC50, A549, calcein, calcein AM readout
[16] = read-out: Cytotoxicity IC50, NCI/ADR RES, CTG, CTG (cell titer-glo) readout
[17] = read-out: Cytotoxicity IC50, NCI/ADR RES, calcein, calcein AM readout
[18] = read-out: Cytotoxicity IC50, SK-OV-3, CTG, CTG (cell titer-glo) readout
[19] = read-out: Cytotoxicity IC50, SK-OV-3, calcein, calcein AM readout
[20] = read-out: Cytotoxicity IC50, Hep 3B, CTG, CTG (cell titer-glo) readout
[21] = read-out: Cytotoxicity IC50, Hep 3B, calcein, calcein AM readout
[22] = read-out: Cytotoxicity IC50, Du145, CTG, CTG (cell titer-glo) readout
[23] = read-out: Cytotoxicity IC50, Du145, calcein, calcein AM readout
[24] = read-out: Cytotoxicity IC50, SF-268, CTG, CTG (cell titer-glo) readout
[25] = read-out: Cytotoxicity IC50, SF-268, calcein, calcein AM readout
[26] = read-out: Cytotoxicity IC50, MCF7, CTG, CTG (cell titer-glo) readout, % error in parentheses
[27] = read-out: Cytotoxicity IC50, MCF7, calcein, calcein AM readout, % error in parentheses
[28] = read-out: Cytotoxicity IC50, NCI-H460, CTG, CTG (cell titer-glo) readout
[29] = read-out: Cytotoxicity IC50, NCI-H460, calcein, calcein AM readout

Compound: 19-(N-METHOXYAMINO-N-22-DEOXY-D-RIBOSYL)COLCHICINE [Col21]
- synergy (paclitaxel) [1]: — (moderate antagonism, Cl 1.2-1.45)
- plus paclitaxel, mean CI [1]: 4.96
- plus paclitaxel, median CI [1]: 2.50
- plus colchicine, mean CI [2]: 1.01
- plus colchicine, median CI [2]: 0.64

Compound: COc1cc2c(c(OC)c1OC)-c1ccc(OC)c(=O)cc1[C@@H](NC(C)=O)CC2 [colchicine, reference compound]
- synergy (paclitaxel) [1]: ++ (moderate synergism, Cl 0.7-0.85)
- plus paclitaxel, mean CI [1]: 0.77
- plus paclitaxel, median CI [1]: 0.18

Compound: COc1cc2c(c(OC)c1OC)-c1ccc(OC)c(=O)cc1C(NC(=O)CN(OC)C1OCC(O)C(O)C1O)CC2 [Col25, L-arabinoside]
- IC50 [3, 12]: 5.7 µM
- IC50 [3, 13]: > 10 µM
- IC50 [4, 14]: 5.02 µM
- IC50 [4, 15]: 5.26 µM
- IC50 [5, 16]: 5.14 µM
- IC50 [5, 17]: 5.53 µM
- IC50 [6, 18]: 8.51 µM
- IC50 [6, 19]: 2.51 µM
- IC50 [7, 20]: > 10 µM
- IC50 [7, 21]: > 10 µM
- IC50 [8, 22]: 7.4 µM
- IC50 [8, 23]: > 10 µM
- IC50 [9, 24]: 6.8 µM
- IC50 [9, 25]: 4.46 µM
- IC50 [10, 26]: 3.02 µM
- IC50 [10, 27]: 3.43 µM
- IC50 [11, 28]: 4.41 µM
- IC50 [11, 29]: 5.78 µM

Compound: COc1cc2c(c(OC)c1OC)-c1ccc(OC)c(=O)cc1[C@@H](NC(=O)CN(OC)[C@@H]1O[C@H](CO)[C@@H](O)[C@H](F)[C@H]1O)CC2 [Col33, 3-fluoro-3-deoxy-D-glucoside]
- IC50 [3, 12]: 5.93 µM
- IC50 [3, 13]: > 10 µM
- IC50 [4, 14]: 2.02 µM
- IC50 [4, 15]: 1.87 µM
- IC50 [5, 16]: > 10 µM
- IC50 [5, 17]: > 10 µM
- IC50 [6, 18]: 1.25 µM
- IC50 [6, 19]: 1.89 µM
- IC50 [7, 20]: 2.67 µM
- IC50 [7, 21]: 1.99 µM
- IC50 [8, 22]: 9.6 µM
- IC50 [8, 23]: 5.44 µM
- IC50 [9, 24]: 0.86 µM
- IC50 [9, 25]: 2.33 µM
- IC50 [10, 26]: 6.64 µM
- IC50 [10, 27]: 6.13 µM
- IC50 [11, 28]: 4.39 µM
- IC50 [11, 29]: > 10 µM

Compound: COc1cc2c(c(OC)c1OC)-c1ccc(OC)c(=O)cc1C(NC(=O)CN(OC)C1OCC(O)C(O)C1O)CC2 [Col20, D-arabinoside]
- IC50 [3, 12]: > 10 µM
- IC50 [3, 13]: > 10 µM
- IC50 [4, 14]: 9.07 µM
- IC50 [4, 15]: > 10 µM
- IC50 [5, 16]: 7.85 µM
- IC50 [5, 17]: 7.74 µM
- IC50 [6, 18]: > 10 µM
- IC50 [6, 19]: > 10 µM
- IC50 [7, 20]: > 10 µM
- IC50 [7, 21]: > 10 µM
- IC50 [8, 22]: 2.41 µM
- IC50 [8, 23]: 3.74 µM
- IC50 [9, 24]: 2.54 µM
- IC50 [9, 25]: 3.95 µM
- IC50 [10, 26]: 4.44 µM
- IC50 [10, 27]: 2.35 µM
- IC50 [11, 28]: 5.21 µM
- IC50 [11, 29]: 3.71 µM

Compound: COc1cc2c(c(OC)c1OC)-c1ccc(OC)c(=O)cc1C(NC(=O)CN(OC)C1OC(C)C(O)C(O)C1O)CC2 [Col14, L-fucoside]
- IC50 [3, 12]: > 10 µM
- IC50 [3, 13]: > 10 µM
- IC50 [4, 14]: > 10 µM
- IC50 [4, 15]: > 10 µM
- IC50 [5, 16]: > 10 µM
- IC50 [5, 17]: > 10 µM
- IC50 [6, 18]: > 10 µM
- IC50 [6, 19]: > 10 µM
- IC50 [7, 20]: > 10 µM
- IC50 [7, 21]: > 10 µM
- IC50 [8, 22]: > 10 µM
- IC50 [8, 23]: > 10 µM
- IC50 [9, 24]: 5.28 µM
- IC50 [9, 25]: 9.89 µM
- IC50 [10, 26]: 4.95 µM
- IC50 [10, 27]: > 10 µM
- IC50 [11, 28]: 9.03 µM
- IC50 [11, 29]: > 10 µM

Compound: COc1cc2c(c(OC)c1OC)-c1ccc(OC)c(=O)cc1[C@@H](NC(=O)CN(OC)[C@@H]1O[C@H](CN=[N+]=[N-])[C@H](O)[C@H](O)[C@H]1O)CC2 [Col43, 6-deoxy-6-azido-D-galactoside]
- IC50 [3, 12]: 3.82 µM
- IC50 [3, 13]: 3.93 µM
- IC50 [4, 14]: > 10 µM
- IC50 [4, 15]: > 10 µM
- IC50 [5, 16]: 5.04 µM
- IC50 [5, 17]: 2.51 µM
- IC50 [6, 18]: > 10 µM
- IC50 [6, 19]: 5.79 µM
- IC50 [7, 20]: 5.3 µM
- IC50 [7, 21]: 3.89 µM
- IC50 [8, 22]: 4.87 µM
- IC50 [8, 23]: 4.19 µM
- IC50 [9, 24]: 5.15 µM
- IC50 [9, 25]: 8.46 µM
- IC50 [10, 26]: 4.91 µM
- IC50 [10, 27]: 3.68 µM
- IC50 [11, 28]: 5.01 µM
- IC50 [11, 29]: 2.36 µM

Compound: novioside [Col29]
- IC50 [3, 12]: > 5 µM
- IC50 [3, 13]: > 5 µM
- IC50 [4, 14]: 1.86 µM
- IC50 [4, 15]: 2.18 µM
- IC50 [5, 16]: 1.56 µM
- IC50 [5, 17]: 1.18 µM
- IC50 [6, 18]: 1.03 µM
- IC50 [6, 19]: 4.35 µM
- IC50 [7, 20]: 2.47 µM
- IC50 [7, 21]: 2.94 µM
- IC50 [8, 22]: 1.24 µM
- IC50 [8, 23]: 0.55 µM
- IC50 [9, 24]: 1.12 µM
- IC50 [9, 25]: 1.28 µM
- IC50 [10, 26]: 0.61 µM
- IC50 [10, 27]: 0.3 µM
- IC50 [11, 28]: 0.98 µM
- IC50 [11, 29]: 3.37 µM

Compound: COc1cc2c(c(OC)c1OC)-c1ccc(OC)c(=O)cc1C(NC(=O)CN(OC)C1OCC(O)C(O)C1O)CC2 [Col7, L-lyxoside]
- IC50 [3, 12]: > 10 µM
- IC50 [3, 13]: > 10 µM
- IC50 [4, 14]: > 10 µM
- IC50 [4, 15]: 9.76 µM
- IC50 [5, 16]: > 10 µM
- IC50 [5, 17]: > 10 µM
- IC50 [6, 18]: > 10 µM
- IC50 [6, 19]: 5.04 µM
- IC50 [7, 20]: 4.89 µM
- IC50 [7, 21]: 4.74 µM
- IC50 [8, 22]: > 10 µM
- IC50 [8, 23]: 4.73 µM
- IC50 [9, 24]: 4.97 µM
- IC50 [9, 25]: 4.9 µM
- IC50 [10, 26]: 2.65 µM
- IC50 [10, 27]: 3.99 µM
- IC50 [11, 28]: 7.08 µM
- IC50 [11, 29]: 5.69 µM

Compound: COc1cc2c(c(OC)c1OC)-c1ccc(OC)c(=O)cc1[C@@H](NC(=O)CN(OC)[C@@H]1O[C@H](C)[C@H](O)[C@H](O)[C@H]1O)CC2 [Col9, D-fucoside]
- IC50 [3, 12]: > 10 µM
- IC50 [3, 13]: > 10 µM
- IC50 [4, 14]: > 10 µM
- IC50 [4, 15]: > 10 µM
- IC50 [5, 16]: > 10 µM
- IC50 [5, 17]: > 10 µM
- IC50 [6, 18]: > 10 µM
- IC50 [6, 19]: > 7.83 µM
- IC50 [7, 20]: > 10 µM
- IC50 [7, 21]: > 10 µM
- IC50 [8, 22]: > 10 µM
- IC50 [8, 23]: > 9.14 µM
- IC50 [9, 24]: > 10 µM
- IC50 [9, 25]: > 10 µM
- IC50 [10, 26]: > 9.96 µM
- IC50 [10, 27]: > 8.75 µM
- IC50 [11, 28]: > 10 µM
- IC50 [11, 29]: > 10 µM
